Molecules are shown by their SMILES.

The assay has as its target T1, Human SGLT2 (hSGLT2) (Homo sapiens, UniProt P31639).
T1 construct: expressed in transfected cells
T1 sequence (P31639 1-672): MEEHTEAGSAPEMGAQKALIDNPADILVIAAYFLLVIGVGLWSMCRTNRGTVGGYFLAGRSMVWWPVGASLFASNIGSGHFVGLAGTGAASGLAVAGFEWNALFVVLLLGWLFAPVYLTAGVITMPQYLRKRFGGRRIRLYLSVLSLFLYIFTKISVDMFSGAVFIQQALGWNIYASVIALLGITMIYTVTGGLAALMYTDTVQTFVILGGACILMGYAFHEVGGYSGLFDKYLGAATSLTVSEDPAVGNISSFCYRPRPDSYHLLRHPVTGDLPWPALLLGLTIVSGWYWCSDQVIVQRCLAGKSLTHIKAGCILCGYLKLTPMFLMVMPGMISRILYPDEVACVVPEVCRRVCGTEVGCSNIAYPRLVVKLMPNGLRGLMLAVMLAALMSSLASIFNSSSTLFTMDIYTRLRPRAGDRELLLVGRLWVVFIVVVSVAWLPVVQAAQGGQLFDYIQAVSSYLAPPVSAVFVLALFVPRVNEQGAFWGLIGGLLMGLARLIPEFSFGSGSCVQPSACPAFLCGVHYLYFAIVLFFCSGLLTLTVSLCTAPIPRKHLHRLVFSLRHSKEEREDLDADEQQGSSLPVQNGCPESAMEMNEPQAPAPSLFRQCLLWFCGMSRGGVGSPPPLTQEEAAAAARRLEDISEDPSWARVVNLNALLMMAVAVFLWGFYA
Nature of the assay: Sodium-dependent glucose transport (14C-AMG uptake) assay in CHO cells stably expressing hSGLT2. It is filed as cell-based. The note with it: CHO cells expressing hSGLT2, 14C-AMG uptake, 37° C. for 2 h; single determinations; read-out: hSGLT2 Inhibitory Activity IC50. The essentials: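 Uptake of 14C-α-methyl-D-glucopyranoside (8 μM labeled, 1 mM unlabeled, NaCl buffer pH 7.4) measured over 2 h at 37 °C with inhibitor in hSGLT2-transfected CHO cells after 10 min choline-buffer pretreatment. Radioactivity by liquid scintillation; IC50 from nonlinear regression.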
One may read the IC50 as the concentration that inhibits the measured activity by half. With `C=CCOc1cc(Cl)c(Cc2ncc(-c3ccco3)s2)cc1[C@@H]1O[C@H](CO)[C@@H](O)[C@H](O)[C@H]1O` [Example 83, (2S,3R,4R,5S,6R)-2-(2-(Allyloxy)-4-chloro-5-((5-(furan-2-yl)thiazol-2-yl)methyl)phenyl)-6-(hydroxymethyl)tetrahydro-2H-pyran-3,4,5-triol], the IC50 is 1.24 nM.
As for `OC[C@H]1O[C@@H](c2ccc(Cl)c(Cc3ncc(C4CCCC4)s3)c2)[C@H](O)[C@@H](O)[C@@H]1O` [Example 19, (2S,3R,4R,5S,6R)-2-(4-Chloro-3-((5-cyclopentylthiazol-2-yl)methyl)phenyl)-6-(hydroxymethyl)-tetrahydro-2H-pyran-3,4,5-triol], the IC50 came out at 9.71 nM.
With `CCOc1cc(Cl)c(Cc2ncc(-c3cccs3)s2)cc1[C@@H]1O[C@H](CO)[C@@H](O)[C@H](O)[C@H]1O` [Example 79, (2S,3R,4R,5S,6R)-2-(4-Chloro-2-ethoxy-5-((5-(thiophen-2-yl)thiazol-2-yl)methyl)phenyl)-6-(hydroxymethyl)tetralrydro-2H-pyran-3,4,5-triol] the figure was 4.29 nM; with `COC[C@H]1O[C@@H](c2ccc(Cl)c(Cc3ncc(-c4ccco4)s3)c2)[C@H](O)[C@@H](O)[C@@H]1O` [Example 139, (2S,3R,4R,5S,6R)-2-(4-Chloro-3-((5-(furan-2-yl)thiazol-2-yl)methyl)phenyl)-6-(methoxymethyl)-tetrahydro-2H-pyran-3,4,5-triol], 23.5 nM.
In the case of `OC[C@H]1O[C@@H](c2ccc(F)c(Cc3ncc(-c4ccco4)s3)c2)[C@H](O)[C@@H](O)[C@@H]1O` [Example 40, (2S,3R,4R,5S,6R)-2-(4-Fluoro-3-((5-(furan-2-yl)thiazol-2-yl)methyl)phenyl)-6-(hydroxymethyl)tetrahydro-2H-pyran-3,4,5-triol], the IC50 was determined as 6.11 nM.
With `Cc1ccc([C@@H]2O[C@H](CO)[C@@H](O)[C@H](O)[C@H]2O)cc1Cc1ncc(-c2nccs2)s1` [Example 34, (2S,3R,4R,5S,6R)-2-(3-(2,5′-Bithiazol-2′-ylmethyl)-4-methylphenyl)-6-(hydroxymethyl)tetrahydro-2H-pyran-3,4,5-triol] the figure was 5.69 nM.
With `CCCc1cnc(Cc2cc([C@@H]3O[C@H](CO)[C@@H](O)[C@H](O)[C@H]3O)c3ccccc3c2O)s1` [Example 126, (2S,3R,4R,5S,6R)-2-(4-Hydroxy-3-((5-propylthiazol-2-yl)methyl)naphthalen-1-yl)-6-(hydroxymethyl)-tetrahydro-2H-pyran-3,4,5-triol] the figure was 67.3 nM; with `CCOc1cnc(Cc2cc([C@@H]3O[C@H](CO)[C@@H](O)[C@H](O)[C@H]3O)c3ccccc3c2OC)s1` [Example 103, (2S,3R,4R,5S,6R)-2-(3-((5-Ethoxythiazol-2-yl)methyl)-4-methoxynaphthalen-1-yl)-6-(hydroxymethyl)-tetrahydro-2H-pyran-3,4,5-triol], 51.8 nM.

Values taken from patent US8586550B2, “Thiazole derivatives as SGLT2 inhibitors and pharmaceutical composition comprising same” (Green Cross Corporation, priority 2010, dated 2013).
